Measured values from patent publication US20240016807A1, “COMBINATION THERAPY FOR THE TREATMENT OF A LIVER DISEASE” (INVENTIVA, priority 2020, published 2024).

Tests used:
Format in all cases: in vivo, C57BL6/J mice
[1] = Body weight follow-up in HFCC/CDX diet mouse model; details: for body weight: during treatment, lanifibranor 10 mg/kg QD per os, firsocostat 30 mg/kg QD per os in first week
Procedure: It has been reported (Duparc T et al., Am J Physiol Gasterointest Liver Physiol, 2019, Vol. 317, n° 4, pages G508-G517) that mice fed with a high fat/high cholesterol/high cholic acid diet with 2% 2-hydroxypropyl beta-cyclodextrin in drinking water for 3 weeks rapidly develops liver complications such as steatosis, inflammation and fibrosis with concomitant increase in plasma ALT/AST levels. The benefit of a combination therapy comprising lanifibranor and firsocostat was assessed in this model.
(§1) C57BL6/J mice were fed for 3 weeks with a 60% high fat/1.25% cholesterol/0.5% cholic acid diet with 2% 2-hydroxypropyl beta-cyclodextrin in drinking water (HFCC/CDX diet). After 1 week of diet, blood was collected (˜150 μL/ethylenediaminetetraacetic acid (EDTA)) in non-fasting conditions and plasma ALT and AST levels were measured. Mice were then randomized into 4 homogenous treatment groups (n=10 mice per group) according to their 1) ALT levels, 2) AST levels and 3) body weight. The four groups received then their treatment for the remaining 2 weeks on top of the HFCC/CDX diet as follows: • Group 1: vehicle 1+vehicle 2; • Group 2: lanifibranor+vehicle 2; • Group 3: vehicle 1+firsocostat; • Group 4: lanifibranor+firsocostat.
All treatments were given QD per os. Vehicle 1 stands for lanifibranor's vehicle (i.e. methyl cellulose/poloxamer), vehicle 2 stands for firsocostat's vehicle (i.e.
Tween®80/methylcellulose). Lanifibranor was given at 10 mg/kg for 2 weeks and firsocostat was given at 30 mg/kg for the first 6 days and then at 15 mg/kg for the last 8 days: due to the high loss of weight observed in the combination group, the dose of firsocostat was adapted to limit toxicity. At the end of the treatment period all the mice were weighted and 4-hour fasted prior to blood collection (maximal volume/EDTA). Plasma was isolated and stored at −80° C. Plasma leftover was used for evaluation of plasmatic triglycerides, cholesterols and free fatty acid. After blood collection, mice were sacrificed by cervical dislocation under isoflurane anaesthesia and exsanguinated with sterile saline.

[2] = system: epididymal white adipose tissue (EWAT); assay: Epididymal white adipose tissue weight in HFCC/CDX diet mouse model; details: 2 weeks treatment QD per os; lanifibranor 10 mg/kg, firsocostat 30 then 15 mg/kg
Procedure: as §1, with “It has been reported (Duparc T et al., Am J Physiol Gasterointest Liver Physiol, 2019, Vol. 317, n° 4, pages G508-G517) that mice fed with a high fat/high cholesterol/high cholic acid diet with 2% 2-hydroxypropyl beta-cyclodextrin in drinking water for 3 weeks rapidly develops liver complications such as steatosis, inflammation and fibrosis with concomitant increase in plasma ALT/AST levels. The benefit of a combination therapy comprising lanifibranor and firsocostat was assessed in this model. C57BL6/J” for “C57BL6/J”, “lanifibranor+firsocostat. All treatments were given QD per os. […]” for “lanifibranor+firsocostat.”

[3] = system: HFCC+CDX diet model (liver lipids); assay: Liver lipids assay in HFCC/CDX diet mouse model; details: 2 weeks treatment QD per os; lanifibranor 10 mg/kg, firsocostat 30 then 15 mg/kg
Procedure: (§2) It has been reported (Duparc T et al., Am J Physiol Gasterointest Liver Physiol, 2019, Vol. 317, n° 4, pages G508-G517) that mice fed with a high fat/high cholesterol/high cholic acid diet with 2% 2-hydroxypropyl beta-cyclodextrin in drinking water for 3 weeks rapidly develops liver complications such as steatosis, inflammation and fibrosis with concomitant increase in plasma ALT/AST levels. The benefit of a combination therapy comprising lanifibranor and firsocostat was assessed in this model. C57BL6/J mice were fed for 3 weeks with a 60% high fat/1.25% cholesterol/0.5% cholic acid diet with 2% 2-hydroxypropyl beta-cyclodextrin in drinking water (HFCC/CDX diet). After 1 week of diet, blood was collected (˜150 μL/ethylenediaminetetraacetic acid (EDTA)) in non-fasting conditions and plasma ALT and AST levels were measured. Mice were then randomized into 4 homogenous treatment groups (n=10 mice per group) according to their 1) ALT levels, 2) AST levels and 3) body weight. The four groups received then their treatment for the remaining 2 weeks on top of the HFCC/CDX diet as follows: • Group 1: vehicle 1+vehicle 2; • Group 2: lanifibranor+vehicle 2; • Group 3: vehicle 1+firsocostat; • Group 4: lanifibranor+firsocostat. All treatments were given QD per os. Vehicle 1 stands for lanifibranor's vehicle (i.e. methyl cellulose/poloxamer), vehicle 2 stands for firsocostat's vehicle (i.e. Tween®80/methylcellulose). Lanifibranor was given at 10 mg/kg for 2 weeks and firsocostat was given at 30 mg/kg for the first 6 days and then at 15 mg/kg for the last 8 days: due to the high loss of weight observed in the combination group, the dose of firsocostat was adapted to limit toxicity. At the end of the treatment period all the mice were weighted and 4-hour fasted prior to blood collection (maximal volume/EDTA). Plasma was isolated and stored at −80° C. Plasma leftover was used for evaluation of plasmatic triglycerides, cholesterols and free fatty acid. After blood collection, mice were sacrificed by cervical dislocation under isoflurane anaesthesia and exsanguinated with sterile saline. The liver was collected and weighted then liver samples were dissected for histology analysis (H&E, Sirius Red staining, % Sirius Red labelling and NAFLD Activity Score (NAS)), liver lipids assay, hepatic gene expression of IL-1b, MCP-1 for inflammation, Col1 alpha1 and TGF-beta for fibrosis were analysed by qPCR.

[4] = system: hepatic gene expression of IL-1b, MCP-1, Col1 alpha1 and TGF-beta; assay: Hepatic gene expression by qPCR (inflammation and fibrosis genes) in HFCC/CDX diet mouse model; details: liver, vs vehicle, 2 weeks treatment
Procedure: as §2

[5] = system: HFCC+CDX diet model (liver histology); assay: Liver histology (steatosis, inflammation, fibrosis scoring, % Sirius Red) in HFCC/CDX diet mouse model; details: for histological fibrosis score: compared to the vehicle group (score of 1); for histological steatosis score / histological inflammation score: 3 being the maximum; for histological steatosis score: all vehicle animals scored 3; for histological inflammation score: all vehicle mice scored 3; for surface of fibrosis (collagen deposition within the liver): vehicle 0.14%; for total scoring including steatosis, inflammation and fibrosis scoring: vehicle 6.9
Procedure: as §2

SMILES | body weight after firsocostat dose reduction ([1]; after firsocostat dose reduced from 30 mg/kg to 15 mg/kg) | body weight [1] | epididymal white adipose tissue (EWAT) weight [2] | hepatic fatty acids levels, change vs vehicle [3] | hepatic total cholesterol, change vs vehicle [3] [%] | hepatic triglycerides, change vs vehicle [3] [%] | hepatic IL-1beta expression [4] | hepatic MCP-1 expression [4] | hepatic TGF-beta1 expression [4] | hepatic collagen 1 alpha 1 expression [4] | histological fibrosis score [5] | histological steatosis score [5] | histological inflammation score [5] | surface of fibrosis (collagen deposition within the liver) [5] [%] | total scoring including steatosis, inflammation and fibrosis scoring [5]
COc1ccccc1[C@H](Cn1c(=O)n(C(C)(C)C(=O)O)c(=O)c2c(C)c(-c3ncco3)sc21)OC1CCOCC1 [firsocostat] | normalized their body weight | induced a body weight loss in the first week of treatment | neither lanifibranor alone, firsocostat alone nor the combination of lanifibranor and firsocostat had an effect | −16% | −9 | −14 | decreased both IL-1beta and MCP-1 expressions but only the decrease in MCP-1 expression reached significance | decreased both IL-1beta and MCP-1 expressions but only the decrease in MCP-1 expression reached significance | statistically decreased | statistically decreased | no effect | score of 2 in 7 animals but had no effect in 2 animals | 1 animals had a score of 3, 7 animals had a score of 2 and 1 animal had a score of 1 | 0.10 | 5.1
O=C(O)CCCc1cc2cc(Cl)ccc2n1S(=O)(=O)c1ccc2ncsc2c1 [lanifibranor, 5-Chloro-1-[(6-benzothiazolyl)sulfonyl]-1H-indole-2-butanoic acid] | – | minor body weight loss that was not significant | neither lanifibranor alone, firsocostat alone nor the combination of lanifibranor and firsocostat had an effect | no effect | −18 | −7 | statistically decreased | statistically decreased | statistically decreased | statistically decreased | no effect | score of 2 for 8 animals and of 1 for 2 animals | 2 animals had a score of 3, 6 animals had a score of 2 and 2 animals had a score of 1 | 0.08 | 4.7
